From patent publication US11931431B2, “PSMA-targeted radiopharmaceutical for diagnosing and treating prostate cancer” (FUTURECHEM CO., LTD, priority 2018, dated 2024)

Target: PSMA (Homo sapiens, UniProt Q04609)
Assay: Measurement of binding capacity: competition with [^125I]30 on 22RV1 cells
Design: host or cells: 22RV1 human prostate cancer cells
Conditions: for binding force / binding capacity to PSMA, in words / IC50 / Ki: 22RV1 cells; for IC50 / Ki: [^125I]30 0.1 nM, 37° C., 2 hours; for IC50: read-out: IC50; for Ki: read-out: Ki value
Description: To confirm the binding capacity of the compounds of the present invention to PSMA, the following experiment was performed.
RPMI1640 supplemented with 1% BSA (bovine serum albumin) was used as a buffer solution.
[^125I]30 (0.1 nM) obtained in Comparative Example 1 was added to a vessel containing 22RV1 cells (5×10^4), to which the compound represented by formula 1 was loaded at 9 concentrations (1.00×10^−4˜1.00×10^−12 M), followed by stirring at 37° C. for 2 hours. Upon completion of the stirring, the vessel was washed with PBS solution (2 mL) three times, and then the radioactivity was measured using a gamma counter (2480 WIZARD2 Gamma Counter PerkinElmer Co., MA). The 50% inhibition concentration (IC50) for each compound was calculated using a GraphPad Prism program (GraphPad Software, Inc., CA)
(Maresca, K. P. et al., 2009, J. Med. Chem. 52, 347-357)

PSMA, sequence (Q04609 whole entry): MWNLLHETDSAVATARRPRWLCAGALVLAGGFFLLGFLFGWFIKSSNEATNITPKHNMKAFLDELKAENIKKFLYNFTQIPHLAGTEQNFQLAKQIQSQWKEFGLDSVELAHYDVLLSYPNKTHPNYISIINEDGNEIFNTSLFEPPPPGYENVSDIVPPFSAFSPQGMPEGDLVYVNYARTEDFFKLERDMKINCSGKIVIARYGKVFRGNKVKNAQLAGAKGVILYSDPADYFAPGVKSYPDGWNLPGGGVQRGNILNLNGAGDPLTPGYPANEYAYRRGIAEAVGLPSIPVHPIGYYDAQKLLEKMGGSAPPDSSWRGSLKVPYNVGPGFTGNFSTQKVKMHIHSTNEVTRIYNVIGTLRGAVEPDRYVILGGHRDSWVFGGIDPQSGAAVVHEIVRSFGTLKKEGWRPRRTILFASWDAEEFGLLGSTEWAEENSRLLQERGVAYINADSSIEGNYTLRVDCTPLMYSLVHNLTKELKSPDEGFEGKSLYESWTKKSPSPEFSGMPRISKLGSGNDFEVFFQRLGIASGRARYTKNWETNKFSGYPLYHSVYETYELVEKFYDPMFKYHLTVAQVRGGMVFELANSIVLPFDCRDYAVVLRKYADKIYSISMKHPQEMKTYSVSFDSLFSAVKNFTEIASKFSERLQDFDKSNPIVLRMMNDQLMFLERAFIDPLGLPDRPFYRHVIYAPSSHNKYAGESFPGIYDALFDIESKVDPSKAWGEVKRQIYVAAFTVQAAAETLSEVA

| IC50 [nM] | Ki [nM] | binding force to PSMA, times higher than that of Ga-1a (compared with Ga-1a) | SMILES | binding force / binding capacity to PSMA, in words |
| --- | --- | --- | --- | --- |
| 571 ± 136 | 69.9 ± 29.8 | about 18.6 times | O=C(O)CC[C@H](NC(=O)N[C@@H](CCCCNC(=O)NCc1cn(CCOCCNC(=O)CN2CCN3CCN4CCN(CC2)CC(=O)[O][Ga]([O]C(=O)C3)[O]C(=O)C4)nn1)C(=O)O)C(=O)O [Ga-1a] | relatively low binding force to PSMA |
| 237 ± 47.1 | 18.7 ± 1.87 |  | O=C(O)CC[C@H](NC(=O)N[C@@H](CCCCNC(=O)N(Cc1cn(CCOCCNC(=O)CN2CCN3CCN4CCN(CC2)CC(=O)[O][Ga]([O]C(=O)C3)[O]C(=O)C4)nn1)c1ccncc1)C(=O)O)C(=O)O [Ga-1b] |  |
| 21.2 ± 2.06 | 3.76 ± 0.37 |  | O=C(O)CC[C@H](NC(=O)N[C@@H](CCCCN(CC(=O)O)C(=O)CCc1cn(CCOCCNC(=O)CN2CCN3CCN4CCN(CC2)CC(=O)[O][Ga]([O]C(=O)C3)[O]C(=O)C4)nn1)C(=O)O)C(=O)O [Ga-1c] |  |
| 75.3 ± 18.6 | 18.6 ± 4.6 |  | O=C(O)CC[C@H](NC(=O)N[C@@H](CCCCN(CCC(=O)O)C(=O)CCc1cn(CCOCCNC(=O)CN2CCN3CCN4CCN(CC2)CC(=O)[O][Ga]([O]C(=O)C3)[O]C(=O)C4)nn1)C(=O)O)C(=O)O [Ga-1d] |  |
| 25.7 ± 5.06 | 8.12 ± 1.6 |  | O=C(O)CC[C@H](NC(=O)N[C@@H](CCCCN(CC(=O)O)C(=O)COCCOCCNC(=O)[C@H](CCCCNC(=O)CCCc1ccccc1)NC(=O)CN1CCN2CCN3CCN(CC1)CC(=O)[O][Ga]([O]C(=O)C2)[O]C(=O)C3)C(=O)O)C(=O)O [Ga-1f] | higher binding capacity than the compound Ga-1e |
| 18.4 ± 0.35 | 5.82 ± 0.11 |  | Cc1ccc(CCCC(=O)NCCCC[C@H](NC(=O)CN2CCN3CCN4CCN(CC2)CC(=O)[O][Ga]([O]C(=O)C3)[O]C(=O)C4)C(=O)NCCOCCOCC(=O)N(CCCC[C@H](NC(=O)N[C@@H](CCC(=O)O)C(=O)O)C(=O)O)CC(=O)O)cc1 [Ga-1g] | higher binding capacity than the compound Ga-1e |

| SMILES | IC50 [nM] | Ki [nM] | binding force to PSMA, times higher than that of Ga-1a (compared with Ga-1a) | binding force / binding capacity to PSMA, in words |
| --- | --- | --- | --- | --- |
| O=C(O)CCC(NC(=O)NC(CCCCN(CC(=O)O)C(=O)COCCOCCNC(=O)CN1CCN2CCN3CCN(CC1)CC(=O)[O][Ga]([O]C(=O)C2)[O]C(=O)C3)C(=O)O)C(=O)O (stereo not drawn) [Ga-1e] | 47.4 ± 1.78 | 12.9 ± 0.49 |  |  |
